Measured values from patent US11098257B2, “Bioderived fuels and methods of making the same” (Alliance for Sustainable Energy, LLC, priority 2019, dated 2021).
Values after ≈ are worked out from the molar mass of the structure shown.

Legend:
Assay type in all cases: physicochemical
[1] = Lower heating value from bomb calorimeter HHV (D240) and hydrogen content; conditions: measured value
Protocol: Heating Values. HHV was found using a bomb calorimeter to combust 15 mL of sample (D240), with LHV calculated using sample hydrogen content (D240, Section 10.5.1) measured using a LECO TruSpec CHN determinator. To find hydrogen content, samples were combusted in excess oxygen at 950° C. The amount of CO2 and H2O produced could then be quantified using IR and using an EDTA calibration standard the hydrogen wt % could be extracted.

Flash point measurement = conditions: measured value
Protocol: Flash point. D7094 was used to measure Tflash with an average error of ±1.3° C.

[2] = Boiling point (simulated distillation T90 D2887; blend by TGA); conditions: measured value
Excerpt: Boiling Point. Tboil of pure was estimated using T90 of a simulated distillation (D2887), with blend Tboil determined using thermogravimetric analysis (TGA).

[3] = Water solubility, ether in aqueous layer by GC/MS; conditions: thermodynamic from solid; purified ether, water saturated 1:5 by volume, left overnight
Protocol: Water Solubility. […] The mixed samples were left overnight to separate and the amount of ether in the aqueous layer was determined by GC/MS.

[4] = Rapid small-scale oxidation test (RSSOT), PetroOxy induction time
Protocol: The next important consideration is that of safety and fuel quality upon storage of the novel blendstock. Oxidation stability of 4-butoxyheptane was examined experimentally. Two distinct characterizations were performed regarding oxidation potential during storage. The first utilized a rapid small-scale oxidation test (RSSOT) using a PetroOxy instrument to determine induction time, which indicates the potential for a fuel to oxidize during storage, which may result in quality degradation from formation of low molecular weight acids and insoluble polymers.

[5] = Storage stability aging per ASTM D4625, GC-MS profile; conditions: GC-MS profile after 6 weeks of aging (simulating 6 months)
Protocol: Storage stability testing. Aging conditions to test storage stability of the target ether are based on the procedure of ASTM D4625 Standard Test Method for Middle Distillate Fuel Storage Stability. This method accelerates the oxidation rate of diesel fuel by approximately 4-fold, with one week under these conditions equivalent to approximately one month of storage at 21° C. It should be noted that this degree of acceleration has not been validated for ethers, but nonetheless provides a standard protocol for diesel range sample aging. Aging was conducted for 6 weeks (simulating 6 months) with measurement of peroxide concentration at 2-week intervals. Peroxide concentration was measured following AOCS method Cd 8b-90, modified for potentiometric end point detection and smaller sample size. A sample of isoamyl ether (>99%, non-stabilized, Sigma-Aldrich) was aged alongside the 4-butoxyheptane for comparison. Samples of 4-butoxyheptane before and after aging were analyzed by gas chromatography with mass spectrometry (GC-MS) in an attempt to identify components produced by oxidation (see Table 11 below). The ether samples were diluted volumetrically in acetone 1:10. Analysis was conducted with an Agilent 7890A GC coupled with an Agilent 5975C mass selective detector (MSD). […]

Row | SMILES | Lower Heating Value [1] | Flashpoint (Flash point measurement) | Boiling Point [2] | Lower Heating Value ([1]; listed as drawing 5) | solubility [3] | induction period ([4]; neat ether, no antioxidant) | induction period with antioxidant ([4]; with 100 ppm butylated hydroxytoluene (BHT)) | % Total Area [5]
1 | CCCCCCOC(CCC)CCC [4-hexoxyheptane] | 43 mJ/kg | 68 °C | 234 °C |  |  |  |  | 
2 | CCCCOC(CCC)CCC [4-butoxyheptane] | 39.2 mJ/kg | 64 °C | 198 °C | 39 mJ/kg | 15 µg/mL (≈ 87.1 µM) | about 23 minutes | > 60 min | 94.90%
3 | CCCCCC(CCCCC)OCC [6-ethoxyundecane] | 42 mJ/kg | 83 °C | 236 °C |  |  |  |  | 
